Patent US5480645A, “Hydroxyamines N-acyl derivatives having scavenger activity and useful in acute and chronic pathologies associated with peroxidation and inflammation phenomena” (LifeGroup S.p.A., priority 1992, dated 1996)

What was measured:
[1] = Solubility; type: physicochemical
[2] = tested on: rat liver microsomes (membrane phospholipid peroxidation); assay: Antiperoxidative activity on rat liver microsomes, NADPH/Fe+2/ADP induced peroxidation (MDA formation); type: biochemical; details: for peroxidation inhibition / MDA: NADPH/Fe+2/ATP, Table 1-A; for MDA: control 42.5
Method: Before the final resuspension mitochondria ape washed with 0.125M KCl containing 15 mM Hepes/10 mM tris at pH=7.4. Rat liver microsomes are prepared as described by Ernster and Nordenbrand (Ernster, Nordenbrand K. Methods Enzymol. 1967, 10:574-80). […]
b) 20 mM Hepes-Tris buffer pH=7.4, 0.5 mM cumene hydroperoxide in the presence or in the absence of the compounds to be tested. The trials after incubation are interrupted with 1 ml 35% TCA which 30 mg BHT and 1 ml 1% TBA (thiobarbituric acid) have been added to. Subsequently the incubation is carried out for 15' at 90° C. in order to allow the development of the coloured adduct.
(§1) A common oxidation product, malonyldialdehyde (MDA), to the two oxidant systems described in (a) and in (b), is measured.
The formed MDA is evaluated by spectrophotometry at 532 nm and calculated by using a molar extinction coefficient of 156.000 (Buege J. A. and Aust S. D., Methods Enzymol., 52, 302-310, 1978).
The tested compounds are solubilized in the culture medium up to the desired concentrations (see tables 1-3). […]
The antiperoxidase activity is measured as % of inhibition of malonyldialdehyde formation.

[3] = tested on: mast cells; assay: In vivo antidegranulating activity in rat mast cells (substance P induced); design: species or system Sprague Dawley rats; details: s.c. 20 mg/kg; substance P 10^-6 M in auricular pinna; substance P effect taken as 100% degranulation
Method: 1. In vivo antidegranulating activity in rat mast cells.
The pharmacological treatment is preceded (20 min. before) by the degranulating stimulus induced by P substance (10^-6 M) injected in the auricular pinna. After 20 minutes from the degranulating stimulus, the animals are sacrificed. Their tissues are then taken (auricular pavilion) for the morphological aspect analysis of the mast cells residing in the connective tissues after fixation and coloration with toluidine blue.
The inhibition level of the mast cells degranulation in the animal tissue treated with the tested compounds in comparison with the animals treated only with the degranulating agent is considered as the parameter of the biological activity.
*the inhibition percentage is calculated considering that the effect of
the substance P is maximum (100% of mast cells degranulation).

[4] = tested on: granular cerebellar cells; assay: Protection against 2 mM glutamate cytotoxicity in immature granular cerebellar cell cultures; details: Mus musculus, 24 h, read-out: % Cellular survival
Method: The tested compounds are solubilized in DMSO at a concentration of from 1 to 100 μM.

[5] = tested on: rat liver microsomes (membrane phospholipid peroxidation); assay: Antiperoxidative activity on rat liver microsomes, cumene hydroperoxide induced peroxidation (MDA formation); type: biochemical; details: for peroxidation inhibition / MDA: 0.5 mM cumene hydroperoxyde, Table 3; for MDA: control 12.8
Method: b) 20 mM Hepes-Tris buffer pH=7.4, 0.5 mM cumene hydroperoxide in the presence or in the absence of the compounds to be tested. […] Subsequently the incubation is carried out for 15' at 90° C. in order to allow the development of the coloured adduct.
as §1
The tested compounds are solubilized in the culture medium up to the desired concentrations (see tables 1-3).
As peroxidant agent 0.5 mM cumene hydroperoxyde is used. As oxidation index the formation of malonyldialdehyde (MDA) is measured (nmoles/mg protein).

[6] = tested on: C6 glioma cells; assay: Protection against 5 mM glutamate cytotoxicity in glioma C6 cultures; details: Rattus norvegicus, C6 glioma, 24 h, read-out: % Cell survival
[7] = tested on: rat cerebellar granular cells; assay: Protection against glutamate neurotoxicity in rat cerebellar granular cell cultures; type: cell-based
Method: Primary cerebellar granular cell cultures are prepared from 8 days old Sprague-Dawly rats. Neurons are grown on 35 mm plates for 7-8 days. […] Glial cells proliferation is prevented by cytosine arabinose-furanoside.
Cells are washed in Locke solution free from Mg^2+ then replated in the conditionned culture medium.
The solution is diluted serially up to 10, 20 and 50 μM. The compounds at the desired concentrations are added to the cells at 37 ° C.; after 15' 50 μM glutamate free from Mg^2+ is added For 15 minutes at 22 ° C.
The cells are then washed 3 times with Locke solution, then added to the original culture medium and maintained at 37 ° C. in 5 % CO2 for 24 hours.
The cellular survival is measured by using a fluorescence microscope.

[8] = in vitro, 10 to 50 μM dose/effect relationship for the test compound

With Cc1c(C)c2c(c(C)c1O)CC(CC(=O)NCCO)O2 (stereo not drawn) [Example 1, 2-(2,3-dihydro-5-hydroxy-4,6,7-trimethylbenzofuran)-acetic acid 2 hydroxyethylamide] the solubility ([1]; organic solvent or mixture, in ethanol, DMSO, chloroform, read-out: solubility in org. solv.) was over 10000 µg/mL, the water solubility ([1]; water) was “slightly soluble” and the peroxidation inhibition ([2]; 10 μM) was 21%. For the same compound, the MDA ([2]; 10 μM) was 33.5 nmoles/mg prot, the peroxidation inhibition ([2]; 20 μM) was 49% and the MDA ([2]; 20 μM) was 21.3 nmoles/mg prot. For the same compound, the “effect compared with the corresponding acid (in words)” value ([2]; Tab. 1-A and 3 (NADPH/Fe+2/ADP and cumene peroxide)) was “consistently higher than that of the comparison product namely the corresponding acid”, the “inhibition of the peroxidation induced by NADPH/Fe+2/ADP (in words)” value [2, 8] was “able to inhibit the peroxidation induced by NADPH/Fe^+2 /ADP (a)” and the “inhibition % (mast cells degranulation induced by substance P)” value [3] was 19%. The viability at 1 µM [4] was 31%, the viability at 3 µM [4] was 40% and the viability at 10 µM [4] was 94%. The peroxidation inhibition ([5]; 20 μM) was 47%, the MDA ([5]; 20 μM) was 6.84 nmoles/mg prot and the peroxidation inhibition ([5]; 50 μM) was 80%. The MDA ([5]; 50 μM) was 2.5 nmoles/mg prot, the “inhibition of the peroxidation induced by cumene peroxide (in words)” value [5, 8] was “able to inhibit the peroxidation induced by NADPH/Fe^+2 /ADP (a) and by cumene peroxide (b)” and the viability at 1 µM [6] was 13%. For the same compound, the viability at 3 µM [6] was 88%, the viability at 10 µM [6] was 89% and the viability at 10 µM ([7]; Rattus norvegicus, 24 h, 10 μM, against 50 μM glutamate, Table 4, control 100, read-out: cell survival) was 33%. For the same compound, the viability at 20 µM ([7]; Rattus norvegicus, 24 h, 20 μM, against 50 μM glutamate, Table 4, control 100, read-out: cell survival) was 50%, the viability at 50 µM ([7]; Rattus norvegicus, 24 h, 50 μM, against 50 μM glutamate, Table 4, control 100, read-out: cell survival) was 85% and the “protection against glutamate exogenous neurotoxicity (in words)” value ([7]; dose-effect relationship) was “able to protect against the glutamate exogenous neurotoxicity”.
